Experimental data reported in publication PMC6582940 (Molecular pharmaceutics, 2018).
Where a name gives a salt, the structure may show the parent alone.

Biological target: ABCB1 (Homo sapiens, UniProt P08183)
Test: competition of […]IAAP photoaffinity labeling in ABCB1 membranes
Assay type: binding

Chain of ABCB1 (P08183 whole entry): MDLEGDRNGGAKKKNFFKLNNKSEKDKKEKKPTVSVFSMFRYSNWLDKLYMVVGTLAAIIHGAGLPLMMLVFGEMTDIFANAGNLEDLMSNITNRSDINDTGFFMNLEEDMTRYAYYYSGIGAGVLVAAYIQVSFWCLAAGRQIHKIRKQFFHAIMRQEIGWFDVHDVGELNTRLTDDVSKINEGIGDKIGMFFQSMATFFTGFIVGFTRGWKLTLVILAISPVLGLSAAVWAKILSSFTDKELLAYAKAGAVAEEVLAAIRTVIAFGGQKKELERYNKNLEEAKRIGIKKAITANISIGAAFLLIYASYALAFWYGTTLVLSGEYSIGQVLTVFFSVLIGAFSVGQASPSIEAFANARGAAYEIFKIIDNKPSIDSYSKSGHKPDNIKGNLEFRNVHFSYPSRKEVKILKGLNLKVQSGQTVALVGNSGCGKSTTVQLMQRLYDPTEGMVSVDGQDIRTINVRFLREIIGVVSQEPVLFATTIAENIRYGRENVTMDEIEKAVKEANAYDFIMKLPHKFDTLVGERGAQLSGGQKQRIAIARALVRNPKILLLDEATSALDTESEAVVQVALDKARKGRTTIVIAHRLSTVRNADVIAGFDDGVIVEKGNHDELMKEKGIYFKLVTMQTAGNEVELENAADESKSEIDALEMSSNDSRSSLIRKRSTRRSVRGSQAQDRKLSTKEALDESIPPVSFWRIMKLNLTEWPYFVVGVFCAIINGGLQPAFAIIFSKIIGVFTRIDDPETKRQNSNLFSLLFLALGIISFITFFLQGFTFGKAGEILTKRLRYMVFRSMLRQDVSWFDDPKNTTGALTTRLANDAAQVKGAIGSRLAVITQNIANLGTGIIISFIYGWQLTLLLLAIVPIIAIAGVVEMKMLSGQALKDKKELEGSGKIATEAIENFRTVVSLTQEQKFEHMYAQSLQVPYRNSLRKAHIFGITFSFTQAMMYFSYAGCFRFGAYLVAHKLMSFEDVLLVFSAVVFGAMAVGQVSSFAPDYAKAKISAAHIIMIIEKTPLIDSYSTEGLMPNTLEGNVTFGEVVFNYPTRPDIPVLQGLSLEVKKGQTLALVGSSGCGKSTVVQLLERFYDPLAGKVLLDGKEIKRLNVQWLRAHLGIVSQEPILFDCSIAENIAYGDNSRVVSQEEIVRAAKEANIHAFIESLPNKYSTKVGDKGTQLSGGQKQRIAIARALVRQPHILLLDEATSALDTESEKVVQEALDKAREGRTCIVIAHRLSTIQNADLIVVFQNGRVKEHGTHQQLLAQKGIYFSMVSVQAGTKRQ

COc1ccc(CCC2c3cc(OCc4ccccc4)c(OC)cc3CCN2C)cc1OCc1ccccc1 (racemic) [isoquinoline 2, (±)-7-benzyloxy-1-(3-benzyloxy-4-methoxyphenethyl)-1,2,3,4-tetrahydro-6-methoxy-2-methylisoquinoline oxalate]
IC50: 63 ± 12 nM
